Assay results from patent publication US7795208B2, “Methods of using deacetylase inhibitors to promote cell differentiation and regeneration” (The Salk Institute for Biological Study, priority 2001, dated 2010).
Values joined by “and” are separate entries in the source; they are usually repeats but may differ in a detail not shown here. Identical values can stand only once.

Columns and labels:
MLC3F-lacZ-nls construct = assay: β-Galactosidase assay of cells transfected with MLC3F-lacZ-nls; type: cell-based, mouse; settings: transfected cells exposed in GM, then DM 48 hours; vs non-treated cells
Description: FIGS. 4A-C illustrate that embryos exposed to DI display enhanced somitogenesis and increased muscle gene expression. […] Cells were then exposed to TSA (50 nM) in GM and subsequently switched to DM for 48 hours. Cells were stained to detect β-galactosidase activity. FIG. 4B is a picture of E 10.5 embryos derived from MLC1/3F-nLacZ transgenic mice exposed to either TSA or VPA treatment (see Example 1) and stained for 1 hour at 30° C. to detect β-galactosidase activity. […] FIG. 4C is a Western blot of extracts derived from total embryos exposed to either TSA or VPA; MHC is detected.
Cells transfected with MLC-lacZ-nls were washed twice in PBS, fixed in 4% paraformaldeheyde-PBS for 5 min, washed twice in PBS, and stained for 2-5 hrs with 5 mM potassium ferrycyanide, 5 mM potassium ferrocyanide, 2 mM MgCl2, 1 mg/ml X-gal (5-bromo-4-chloro-3-indolyl-β-D-galactoside).

C2C12 cells = assay: Differentiation and muscle protein expression of C2C12 myoblasts exposed to deacetylase inhibitors (MHC immunofluorescence, Western blot, RT-PCR, FACS); type: cell-based, mouse; settings: for Nuclei/MHC-Positive Cells (number of nuclei) / percentage of nuclei detected in MHC-positive cells: C2C12, DI 24 hours in GM, then DM without DI, Tr. 1 and Tr. 2; for MHC expression and frequency of MHC-positive multinucleated cells: undifferentiated myoblasts exposed in GM, differentiated in the absence of DI, vs untreated cells
Description: Mouse muscle myoblast C2C12 cells (obtained from the American Type Culture Collection, ATCC CRL-1772) and CC42 cells (from Dr. Kenneth Walsh, Tufts University School of Medicine) were cultured in DMEM supplemented with 20% fetal bovine serum, 2 mM glutamine and 1× kanamycin (growth medium, GM). Cellular differentiation was induced with DMEM supplemented with 2% horse serum and 1× insulin, transferring, selenium (Life Technologies). Human skeletal myocytes (CC-2561) were purchased from Clonetics. Stable C2C12 cell lines with integrated reporters are described in Wu, Z., et al., Mol Cell Biol 20:3951-64 (2000). The MCK-luc, 4RE-luc, MEF2 reporter constructs have been described in Puri, P. L., et al., EMBO Journal 16:369-83 (1997a) and Sartorelli, V., et al., Molecular & Cellular Biology 17:1010-26 (1997). The E2F-luc plasmid is described in Helin, K., et al., Genes Dev 7:1850-61 (1993). The MLC-lacZ-nls plasmid is described in Wu, et al. (2000). Dr. Stuart Schreiber (Harvard University) provided the vector expressing Flag-HDAC1, which is described in Taunton, J., et al., Science 272: 408-11 (1996). Transient transfections were performed using FuGENE 6 transfection reagent (Roche Molecular Biochemicals). Following transfections, luciferase activity was determined using the Dual-Luciferase reporter assay system (Promega) on a microtiter luminescence detection system (MLX, Dynex).
For immunoblotting, cell extracts were obtained after incubating the cells in standard lysis buffer. Western blots were probed with the following antibodies: anti-MHC (MF-20), anti-myogenin (FD5), and anti-tubulin (E7), obtained from the Developmental Studies Hybridoma Bank, University of Iowa. Primary antibodies were visualized with the ECL cheminoluminescent kit (Amersham). Cells were fixed and stained with anti-MHC MF-20 antibodies. Nuclei were visualized by 4′,6′-[…]-2-phenylindole (DAPI). FITC-conjugated or Texas red-conjugated secondary antibodies were employed to reveal the primary antibodies.
C2C12 and CC42 cells were exposed to sodium butyrate 5 mM (Sigma), trichostatin A 50 nM (Upstate Biotechnologies), or valproic acid 10 mM (Sigma) for 24 hours in GM (GM regimen). TSA was removed and the cells cultured in DM for 48 hrs before being analyzed. When indicated (DM regimen), the cells were exposed to deacetylase inhibitors when switched from GM to DM and cultured in their presence for 48 hrs.
Another striking effect induced by DI is their ability to increase the number of nuclei present in MHC positive cells. While approximately 15% of the total nuclei are present in elongated, MHC-positive myotubes not exposed to DI, approximately 75-80% of the total nuclei are detected in hypernucleated MHC-positive myotubes when these have been previously exposed to DI (see FIG. 1D and Table 1). In Table 1, C2C12 cells were either exposed to sodium butyrate, TSA, VPA or left untreated for 24 hours in GM. The medium was replaced with DM without DI, and MHC expression was detected by immunofluorescent staining. Nuclei were visualized with DAPI. The values in parenthesis indicate the percentage of nuclei detected in MHC-positive cells. The values are derived from two independent trials.

mouse embryos = assay: Embryos of pregnant MLC1/3F-nLacZ mice exposed in utero (somitogenesis, muscle gene expression); type: in vivo
Description: MLC1/3F-nLacZ pregnant mice (E 8.5) received intra peritoneal injection of 15 μg of TSA (WAKO chemicals, Neuss Germany) or VPA (Sigma) at E 8.5 and E 9.5 as described in Faiella, A., et al., Hum Mol Genet 9:227-36 (2000), and Nervi, C., et al., Cancer Res 61:1247-9 (2001). VPA was dissolved in distilled water and administered at doses of 6 mg/mice (about 150 μg/ml) every 12 h at E 8.5, E 9, E 9.5, E 10 as described in Faiella et al. (2000). […] Mice were sacrificed at E 10.5, and the embryos were observed under a dissecting stereo-microscope to evaluate their viability, presence of external malformations, and number of somites. Embryos were fixed in 4% paraformaldehyde for histology and X-Gal staining or immunocytochemistry using antibodies against MyoD and myosin heavy chains as described in Tajbakhsh, S., et al., Neuron 13:813-21 (1994).
DI was administered intraperitoneally to pregnant mice (at a concentration of 0.5 to 1 mg/Kg for TSA and 200 mg/Kg for VPA) at post-implantation stages of E 8.5, and the pregnant mice were sacrificed at 10.5, when MyoD expression is clearly detectable in the myotomes. […] In Table 2, Somites of MLC1/3F-nLacZ mice (injected at day 8.5 and sacrificed at day 10.5) were scored after staining the embryos to detect β-galactosidase activity.

[1] = i.p. to pregnant mice at E 8.5, sacrificed at 10.5, 0.5 to 1 mg/Kg TSA, 200 mg/Kg VPA

Row | SMILES | β-galactosidase-positive nuclei (MLC3F-lacZ-nls construct) | Nuclei/MHC-Positive Cells (number of nuclei) (C2C12 cells) | percentage of nuclei detected in MHC-positive cells (C2C12 cells) | MHC expression and frequency of MHC-positive multinucleated cells (C2C12 cells) | level of MLC-lacZ transgene expression (mouse embryos; E 10.5 embryos, vs control embryos) | # somites (β-galactosidase staining) (mouse embryos; MLC1/3F-nLacZ mice injected at day 8.5, sacrificed at day 10.5, TSA [1 mg/ml] (20 ul + 380 ul PBS), VPA 155 mM, one value per embryo, PBS controls 25-32) | levels of MHC in exposed embryos (Western blot) (mouse embryos; extracts of total embryos) | number of MLC expressing somites (mouse embryos; [1]) | number of MyoD expressing myotomes (mouse embryos; [1]) | expression of myogenin and MHC, differentiation (C2C12 cells; C2C12 treated when cultured in DM, 48 hours) | apoptosis (reduced cell density) (C2C12 cells; cells exposed in DM)
1 | CCCC(CCC)C(=O)O [VPA, valproic acid] | increased β-galactosidase-positive nuclei | 153 and 187 | 81% and 78% | effects undistinguishable from those exerted by sodium butyrate | higher level of MLC-lacZ transgene expression | 35 and 36 and 33 and 34 | augmented the levels of MHC | consistently increased | consistently increased |  | 
2 | CCCC(=O)[O-].[Na+] [Sodium Butyrate, sodium butyrate] |  | 230 and 210 | 83% and 84% | upregulated MHC expression and displayed a striking increased frequency of larger MHC-positive multinucleated cells |  |  |  |  |  | failed to activate expression of both myogenin and the myosin heavy chain (MHC) and to properly differentiate | high frequency of apoptosis
